pIC50: −log10 of the molar value.
Experiments:
PDE2A (NM002599) = biological target: T1, PDE2A (NM002599) (Homo sapiens, UniProt O00408); experiment: Inhibition of recombinant PDE2A (expressed in baculovirus/SF21-cells); assay type: biochemical; details: recombinant PDE2A, 0.5 μM [3H]-cAMP, 1000 nM cGMP, 37° C., 30 minutes, SPA; read-out: PDE2A IC50
T1 construct: made in house; host or cells: baculovirus / SF21 insect cells
Description: PDE2A (NM002599) was cloned and the gene was inserted in the baculovirus and the enzyme-protein expressed in SF21-cells. The enzyme was isolated from these cells by harvesting the cells by an centrifugation at 200 g to collect the cells. The cells were resuspended in 50 mM Tris-HCl/5 mM MgCl2 buffer (pH=7.4) (Sigma, Deisenhofen, Germany; Merck, Darmstadt, Germany) and lysed by a sonication of the cells (three times for 15 seconds, Labsonic U, Fa. Braun, Degersheim, Switzerland, level “high”). The membrane fraction of PDE2A was obtained by a centrifugation at 48 000 g for 1 h, resuspended in buffer and stored at −70° C.
PDE2A activity was determined in a one step procedure in microtiterplates. The reaction mixture of 100 μl contained 50 mM Tris-HCl/5 mM MgCl2 buffer (pH=7.4) (Sigma, Deisenhofen, Germany; Merck, Darmstadt, Germany), 0.5 μM [3H]-cAMP (Amersham, Buckinghamshire, UK), 1000 nM cGMP and the enzyme. Non-specific enzyme activity was tested in the absence of cGMP. The reaction was initiated by addition of the substrate solution and was carried out at 37° C. for 30 minutes. Enzymatic activity then was stopped by addition of 25 μl SPA-beads (Amersham-Pharmacia). One hour later the mixture was measured in a liquid scintillation counter for microtiterplates (Microbeta Trilux). For pipetting of the incubation mixture the robot Biomek (Fa. Beckman) was routinely used.
The optimal amount of enzyme in the assay has been determined and optimised for each enzyme preparation separately before using the enzyme in compound testing. For determination of IC50 values the Hill-plot, 2-parameter-model, was used.

PDE10A1 (AB 020593) = biological target: T2, PDE10A1 (AB 020593) (Homo sapiens, UniProt Q9Y233); experiment: Inhibition of recombinant PDE10A (baculovirus/SF21 system); assay type: biochemical; details: recombinant cytosolic PDE10A, 0.1 μM [3H]-cAMP, 37° C., 30 minutes, SPA; read-out: PDE10A IC50
T2 construct: made in house; host or cells: baculovirus / SF21 insect cells (gene synthesized by Entelechon GmbH)
T2 sequence (Q9Y233 other isoform, or with tags, fused parts or gaps): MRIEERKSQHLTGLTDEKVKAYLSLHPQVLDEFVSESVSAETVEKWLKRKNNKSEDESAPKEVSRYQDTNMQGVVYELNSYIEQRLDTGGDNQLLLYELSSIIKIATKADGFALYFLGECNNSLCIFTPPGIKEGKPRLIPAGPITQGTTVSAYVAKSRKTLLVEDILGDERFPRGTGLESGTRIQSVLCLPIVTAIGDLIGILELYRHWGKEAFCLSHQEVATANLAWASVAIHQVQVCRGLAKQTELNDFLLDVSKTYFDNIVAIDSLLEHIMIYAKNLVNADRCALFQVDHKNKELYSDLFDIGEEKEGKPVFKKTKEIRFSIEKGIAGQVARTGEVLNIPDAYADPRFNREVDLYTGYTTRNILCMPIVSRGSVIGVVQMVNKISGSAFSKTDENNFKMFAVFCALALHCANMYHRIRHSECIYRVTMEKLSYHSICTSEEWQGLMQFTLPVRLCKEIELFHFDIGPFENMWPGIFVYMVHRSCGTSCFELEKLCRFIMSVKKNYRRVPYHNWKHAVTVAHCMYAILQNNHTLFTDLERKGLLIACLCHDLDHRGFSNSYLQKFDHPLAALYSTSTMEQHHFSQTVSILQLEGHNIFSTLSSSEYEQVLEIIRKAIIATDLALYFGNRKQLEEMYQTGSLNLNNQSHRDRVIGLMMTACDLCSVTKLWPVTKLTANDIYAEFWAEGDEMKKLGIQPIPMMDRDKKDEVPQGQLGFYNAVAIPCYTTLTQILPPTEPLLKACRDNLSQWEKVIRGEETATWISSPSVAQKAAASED
Description: The DNA of PDE10A1 (AB 020593, 2340 bp) was synthesized and cloned into the vector pCR4.TOPO (Entelechon GmbH, Regensburg, Germany). The gene was than inserted into a baculovirus vector, ligated with the baculovirus DNA. The enzyme-protein was expressed in SF21-cells. The enzyme was isolated from these cells by harvesting the cells by an centrifugation at 500 g to collect the cells.
The cells were resuspended in 50 mM Tris-HCl/1 mM EDTA/250 mM Sucrose buffer, pH=7.4 (Sigma, Deisenhofen, Germany; Merck, Darmstadt, Germany) and lysed by sonification of the cells (three times for 15 seconds, Labsonic U, Fa. Braun, Degersheim, Switzerland, level “high”). The cytosolic PDE10A was obtained by a centrifugation at 48,000 g for 1 h in the supernatant and stored at −70° C.
PDE activity was determined in a one step procedure in microtiter plates. The reaction mixture of 100 μl contained 50 mM Tris-HCl/5 mM MgCl2 buffer (pH=7.4, Sigma, Deisenhofen, Germany; Merck, Darmstadt, Germany) 0.1 μM [3H]-cAMP (Amersham, Buckinghamshire, UK) and the enzyme. Non-specific enzyme activity was determined without the enzyme. The reaction was initiated by addition of the substrate solution and was carried out at 37° C. for 30 minutes. Enzymatic activity then was stopped by addition of 25 μl Ysi-SPA-beads (Amersham-Pharmacia). One h later the mixture was measured in a liquid scintillation counter for microtiter plates (Microbeta Trilux). The Biomek 2000 (Beckman) was used routinely for pipetting of the incubation mixture. The optimal amount of enzyme in the assay has been determined and optimized for each enzyme preparation separately before using the enzyme in compound testing. For determination of IC50 values the Hill-plot, 2-parameter-model, was used.

T1 sequence (O00408 whole entry): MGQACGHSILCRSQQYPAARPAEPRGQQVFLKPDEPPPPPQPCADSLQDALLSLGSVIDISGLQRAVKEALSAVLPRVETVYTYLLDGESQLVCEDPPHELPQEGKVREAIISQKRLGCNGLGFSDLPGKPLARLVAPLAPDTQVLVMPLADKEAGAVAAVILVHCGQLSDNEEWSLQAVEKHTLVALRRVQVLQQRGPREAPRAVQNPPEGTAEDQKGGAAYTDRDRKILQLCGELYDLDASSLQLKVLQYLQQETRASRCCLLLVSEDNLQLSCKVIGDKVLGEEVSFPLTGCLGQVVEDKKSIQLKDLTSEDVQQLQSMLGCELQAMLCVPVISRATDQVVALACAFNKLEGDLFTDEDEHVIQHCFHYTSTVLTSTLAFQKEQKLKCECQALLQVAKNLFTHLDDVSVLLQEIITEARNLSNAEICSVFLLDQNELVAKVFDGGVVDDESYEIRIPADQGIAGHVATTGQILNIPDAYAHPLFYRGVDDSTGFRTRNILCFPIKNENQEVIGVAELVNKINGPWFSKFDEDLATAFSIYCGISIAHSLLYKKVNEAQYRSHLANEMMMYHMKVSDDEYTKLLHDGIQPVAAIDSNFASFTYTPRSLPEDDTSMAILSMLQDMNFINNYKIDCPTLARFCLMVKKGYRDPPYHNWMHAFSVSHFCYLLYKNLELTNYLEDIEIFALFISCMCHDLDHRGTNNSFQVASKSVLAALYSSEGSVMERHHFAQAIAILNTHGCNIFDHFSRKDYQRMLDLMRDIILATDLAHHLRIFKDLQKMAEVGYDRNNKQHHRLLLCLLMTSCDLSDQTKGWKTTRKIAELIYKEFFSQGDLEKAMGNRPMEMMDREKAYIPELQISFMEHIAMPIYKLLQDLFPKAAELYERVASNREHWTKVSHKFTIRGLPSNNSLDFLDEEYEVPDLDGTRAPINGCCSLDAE

Row | Compound | pIC50 (PDE2A (NM002599)) | pIC50 (PDE10A1 (AB 020593))
1 | COc1ccc2nnc3c(C)nc(-c4cc(F)cc(OC(C)C)c4)n3c2n1 [Example 22, 9-[3-fluoro-5-(1-methylethoxy)phenyl]-2-methoxy-7-methylimidazo[5,1-c]pyrido[2,3-e][1,2,4]triazine] | < 6.00 | < 6.00
2 | COc1ccc2nnc3c(C)nc(-c4ccc(F)c(OC)c4)n3c2n1 [Example 23, 9-(4-fluoro-3-methoxyphenyl)-2-methoxy-7-methylimidazo[5,1-c]pyrido[2,3-e][1,2,4]triazine] | 7.58 | 7.46
3 | COc1ccc(OC)c(-c2nc(C)c3nnc4ccc(OC)nc4n23)c1 [Example 24, 9-(2,5-dimethoxyphenyl)-2-methoxy-7-methylimidazo[5,1-c]pyrido[2,3-e][1,2,4]triazine] | 7.71 | 7.22
4 | COc1ccc2nnc3c(C)nc(-c4cccc(OC(F)(F)F)c4)n3c2n1 [Example 25, 2-methoxy-7-methyl-9-[3-(trifluoromethoxy)phenyl]imidazo[5,1-c]pyrido[2,3-e][1,2,4]triazine] | 6.46 | < 6.00
5 | COc1cc(OC)cc(-c2nc(C)c3nnc4ccc(OC)nc4n23)c1 [Example 26, 9-(3,5-dimethoxyphenyl)-2-methoxy-7-methylimidazo[5,1-c]pyrido[2,3-e][1,2,4]triazine] | 6.90 | 6.92
6 | COc1ccc2nnc3c(C)nc(-c4cccc(OC(C)C)c4)n3c2n1 [Example 27, 2-methoxy-7-methyl-9-[3-(1-methylethoxy)phenyl]imidazo[5,1-c]pyrido[2,3-e][1,2,4]triazine] | 6.09 | 5.75
7 | CCOc1ccc(F)c(-c2nc(C)c3nnc4ccc(OC)nc4n23)c1 [Example 28, 9-(5-ethoxy-2-fluorophenyl)-2-methoxy-7-methylimidazo[5,1-c]pyrido[2,3-e][1,2,4]triazine] | 7.54 | 6.94
8 | CCOc1cc(F)cc(-c2nc(C)c3nnc4ccc(OC)nc4n23)c1 [Example 29, 9-(3-ethoxy-5-fluorophenyl)-2-methoxy-7-methylimidazo[5,1-c]pyrido[2,3-e][1,2,4]triazine] | 6.42 | 6.47
9 | COc1ccc2nnc3c(C)nc(-c4cccc(OCC(F)(F)F)c4)n3c2n1 [Example 30, 2-methoxy-7-methyl-9-[3-(2,2,2-trifluoroethoxy)phenyl]imidazo[5,1-c]pyrido[2,3-e][1,2,4]triazine] | 7.81 | 6.47
10 | COc1cc(-c2nc(C)c3nnc4ccc(OC)nc4n23)cc(C(F)(F)F)c1 [Example 31, 2-methoxy-9-[3-methoxy-5-(trifluoromethyl)phenyl]-7-methylimidazo[5,1-c]pyrido[2,3-e][1,2,4]triazine] | < 6.00 | < 6.00
11 | COc1ccc2nnc3c(C)nc(-c4cccnc4OC)n3c2n1 [Example 32, 2-methoxy-9-(2-methoxypyridin-3-yl)-7-methylimidazo[5,1-c]pyrido[2,3-e][1,2,4]triazine] | 6.73 | 6.68
12 | COc1ccc2nnc3c(C)nc(-c4cncc(C)c4)n3c2n1 [Example 33, 2-methoxy-7-methyl-9-(5-methylpyridin-3-yl)imidazo[5,1-c]pyrido[2,3-e][1,2,4]triazine] | 7.84 | 7.29
13 | COc1ccc2nnc3c(C)nc(-c4ccnc(C)c4)n3c2n1 [Example 34, 2-methoxy-7-methyl-9-(2-methylpyridin-4-yl)imidazo[5,1-c]pyrido[2,3-e][1,2,4]triazine] | 6.38 | 6.57
14 | CCc1ccccc1-c1nc(C)c2nnc3ccc(OC)nc3n12 [Example 35, 9-(2-ethylphenyl)-2-methoxy-7-methylimidazo[5,1-c]pyrido[2,3-e][1,2,4]triazine] | 7.38 | 7.23
15 | CCOc1cccc(-c2nc(C)c3nnc4ccc(OC)nc4n23)c1 [Example 36, 9-(3-ethoxyphenyl)-2-methoxy-7-methylimidazo[5,1-c]pyrido[2,3-e][1,2,4]triazine] | 6.83 | 6.52
16 | COc1ccc2nnc3c(C)nc(-c4cccc(OC)c4OC)n3c2n1 [Example 37, 9-(2,3-dimethoxyphenyl)-2-methoxy-7-methylimidazo[5,1-c]pyrido[2,3-e][1,2,4]triazine] | 6.56 | 6.84
17 | CCOc1cccc(-c2nc(C)c3nnc4ccc(OC)nc4n23)c1F [Example 38, 9-(3-ethoxy-2-fluorophenyl)-2-methoxy-7-methylimidazo[5,1-c]pyrido[2,3-e][1,2,4]triazine] | 6.61 | 6.21
18 | COc1ccc2nnc3c(C)nc(-c4cccc(OC)c4Cl)n3c2n1 [Example 39, 9-(2-chloro-3-methoxyphenyl)-2-methoxy-7-methylimidazo[5,1-c]pyrido[2,3-e][1,2,4]triazine] | 6.95 | 6.94
19 | COc1cncc(-c2nc(C)c3nnc4ccc(OC)nc4n23)c1 [Example 40, 2-methoxy-9-(5-methoxypyridin-3-yl)-7-methylimidazo[5,1-c]pyrido[2,3-e][1,2,4]triazine] | 7.85 | 7.04
20 | COc1ccc2nnc3c(C)nc(-c4cc(Cl)cnc4OC)n3c2n1 [Example 41, 9-(5-chloro-2-methoxypyridin-3-yl)-2-methoxy-7-methylimidazo[5,1-c]pyrido[2,3-e][1,2,4]triazine] | 7.27 | 6.54
21 | COc1ccc2nnc3c(C)nc(-c4cccnc4OC(C)C)n3c2n1 [Example 42, 2-methoxy-7-methyl-9-[2-(1-methylethoxy)pyridin-3-yl]imidazo[5,1-c]pyrido[2,3-e][1,2,4]triazine] | 6.12 | > 5.30
22 | COc1ccc2nnc3c(C)nc(-c4cncc(F)c4)n3c2n1 [Example 43, 9-(5-fluoropyridin-3-yl)-2-methoxy-7-methylimidazo[5,1-c]pyrido[2,3-e][1,2,4]triazine] | 6.57 | 6.44
23 | COc1ccc2nnc3c(C)nc(-c4ccncc4)n3c2n1 [Example 44, 2-methoxy-7-methyl-9-pyridin-4-ylimidazo[5,1-c]pyrido[2,3-e][1,2,4]triazine] | 6.32 | 6.46
24 | COc1ccc2nnc3c(C)nc(-c4ccncc4Cl)n3c2n1 [Example 45, 9-(3-chloropyridin-4-yl)-2-methoxy-7-methylimidazo[5,1-c]pyrido[2,3-e][1,2,4]triazine] | 7.50 | 7.43
25 | COc1cc(-c2nc(C)c3nnc4ccc(OC)nc4n23)c(Cl)cn1 [Example 46, 9-(5-chloro-2-methoxypyridin-4-yl)-2-methoxy-7-methylimidazo[5,1-c]pyrido[2,3-e][1,2,4]triazine] | 7.15 | 6.72
26 | COc1ccc2nnc3c(C)nc(-c4cnccc4OC)n3c2n1 [Example 47, 2-methoxy-9-(4-methoxypyridin-3-yl)-7-methylimidazo[5,1-c]pyrido[2,3-e][1,2,4]triazine] | 7.16 | 6.75
27 | COc1ccc2nnc3c(C)nc(-c4ccc5nccn5c4)n3c2n1 [Example 48, 9-imidazo[1,2-a]pyridin-6-yl-2-methoxy-7-methylimidazo[5,1-c]pyrido[2,3-e][1,2,4]triazine] | 6.26 | 6.59
28 | COc1ccc2nnc3c(C)nc(-c4cc(C(C)=O)ccc4Cl)n3c2n1 [Example 49, 1-[4-chloro-3-(2-methoxy-7-methylimidazo[5,1-c]pyrido[2,3-e][1,2,4]triazin-9-yl)phenyl]ethanone] | 7.56 | 6.39
